PubChem BioAssay AID179 (DTP/NCI, 2004)
pEC50, pIC50: −log10 of the molar value. Active and inactive are the calls of the source.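 The calls were made as follows: active = compounds giving half or more protection of infected cells from virus-caused growth loss, again on retest; inactive = the rest.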

System: CEM cells HIV-1 protection, formazan growth assay
Assay: NCI AIDS Antiviral Assay
Conditions: for pIC50: measured here: growth of uninfected CEM cells
Summary of the method: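 Protection of CEM cells against HIV-1 was scored from cell growth (soluble formazan) across five concentrations, with parallel uninfected cells. Lack of protection may reflect toxicity.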

Structure (SMILES)	pEC50	pIC50	outcome
CC(C)[C@](O)(C(=O)OCC1CCN2CC[C@@H](O)C12)[C@H](C)O (some centres not stated)	< 3.70	< 3.70	–
O=C1NC2OC(CO)C(O)C(O)C2O1 (configuration not stated)	< 3.70	< 3.70	–
C=C(C)c1nc(C#N)c(N)o1	< 3.70	< 3.70	–
CCOC(=O)c1c2c(nc3c1CCCC3)CCCC2	< 3.70	4.19	–
c1ccc(NCn2cnc3ccccc32)cc1	–	–	inactive
C#CCOCn1cnc2c(=O)[nH]cnc21	< 3.48	< 3.48	–
Cc1ccnc(NC(=O)Nc2ccc(F)c([N+](=O)[O-])c2)c1	< 3.70	< 3.70	–
COc1ccc(OC(=O)N2C/C(=C\c3ccccc3)C(=O)/C(=C/c3ccccc3)C2)cc1	–	–	inactive
CCOC1OC(CO)C(O)CC1n1ccc(=O)[nH]c1=O (configuration not stated)	< 3.70	4.01	–
CCOC(=O)/C(C#N)=C/Nc1c(C)n(C)n(-c2ccccc2)c1=O	< 3.70	< 3.70	–
COc1cccc(C2(C#N)CCN(C)CC2)c1	< 2.97	3.27	–
O=C(CCCN1CCC2(CC1)CC(=O)N(N1CCCCCC1)C2=O)c1ccc(F)cc1	< 3.70	< 3.70	–
CN(C)c1ccc(C2N(C)CCN2C)cc1	< 3.70	< 3.70	–
O=c1[nH]nc(-c2ccccc2)n1O	< 3.70	< 3.70	–
COC(=O)[C@@H](O)[C@](O)(CCC(C)C)C(=O)O[C@@H]1C(OC)=C[C@]23CCCN2CCc2cc4c(cc2[C@H]13)OCO4	< 3.61	6.24	–
c1ccc(C2=Nc3ccccc3N=C(c3ccccc3)C2)cc1	< 4.75	< 4.75	–
CCOC(=O)/C=C1/Nc2cc(F)c(F)cc2NC1=O	< 3.70	< 3.70	–
CC(C)(C)OC(=O)C1C(=O)C(C(=O)OC(C)(C)C)C23CCCCC12C(C(=O)OC(C)(C)C)C(=O)C3C(=O)OC(C)(C)C (configuration not stated)	< 4.52	< 4.52	–
O=C1NN=C(c2ccc([N+](=O)[O-])cc2)C1n1nc(-c2ccccc2)c2ccccc2c1=O (configuration not stated)	< 4.21	< 4.21	–
CCC(=N\N=C(N)N)/C(C)=N/N=C(N)N	< 4.63	< 4.63	–
NC(N)=NCc1ccc2c(c1)OCO2	< 3.70	3.78	–
COC(=O)N/N=C(/CCC(=O)Nc1ccc(C)c(C)c1)CC(=O)C(C)(C)C	< 3.18	< 3.18	–
CSc1cc(-c2ccccn2)nc(-c2ccccn2)c1.CSc1cc(-c2ccccn2)nc(-c2ccccn2)c1.[O-][Cl+3]([O-])([O-])[O-].[Zn+2]	< 3.70	7.20	–

Structure (SMILES)	pEC50	pIC50	outcome
COC(=O)c1cc(C(CCl)c2cc(C(=O)OC)c(OC)c(Br)c2C)c(C)c(Br)c1OC	< 3.70	5.06	–
COC1C(=O)CCC2(CO2)C1(O)C1(C)OC1CC=C(C)C (configuration not stated)	< 3.70	5.54	–
CC1=NOC2(C1)C(=O)Nc1ccccc12 (configuration not stated)	< 3.70	3.85	–
OC1C(O)C(O)C2(CO2)C(O)C1O (configuration not stated)	< 3.70	< 3.70	–
Cc1nc2c(nc1C)C(=O)C=CC2=O	< 3.70	4.94	–
O=C(O)c1ccc2c(c1)CC1(C2)Cc2cc3c(cc2C1=O)CCC3 (configuration not stated)	< 3.70	4.07	–
COc1cc2[nH]c3c(c2cc1OC)CCN[C@@]31CC[C@@]2(CC3c4c(cc(OC)c(O)c42)CCN3C)C[C@@H]1OC (some centres not stated)	–	–	inactive
COc1cc(C2(O)c3ccccc3C3=NCCN32)cc(OC)c1OC (configuration not stated)	< 3.70	< 3.70	–
CCCCCCNC(=O)/C(=C/c1ccc(OC)cc1)NC(=O)c1ccccc1	< 3.70	3.99	–
c1ccc(-c2cn3nc(N4CCOCC4)sc3n2)cc1	< 3.70	< 3.70	–
Cc1cc(Cl)ccc1N1C(=O)C(=O)C(c2nc3ccccc3s2)C(=O)C1=O	< 4.04	< 4.04	–
O=C(O)COc1ccc2c3c1C(=O)CCC3CO2 (configuration not stated)	–	–	inactive
CP(=O)(O)C(N)Cc1c[nH]c2ccccc12 (configuration not stated)	< 4.00	< 4.00	–
Cc1ccc(NC(=O)CC/C(CC(=O)C(C)(C)C)=N/Nc2nnc(C)n2N)cc1C	< 4.06	< 4.06	–
COc1ccc(-c2cc(=O)c3c(OC)c(O)c(OC)cc3o2)cc1	< 3.70	4.41	–
CC12CCC(=O)C=C1C=CC1C2CCC2(C)C1CCC21CCC(=O)O1 (configuration not stated)	< 3.70	4.08	–
Cc1ccc2ccc3ccc(C)nc3c2n1	< 4.92	6.62	–
O=C(CP(c1ccccc1)c1ccccc1)c1cccc(C(=O)CP(c2ccccc2)c2ccccc2)c1	< 3.70	4.48	–
O=C1c2ccccc2C(=O)N1CC(CN1C(=O)c2ccccc2C1=O)(C(=O)OCc1ccccc1)C(=O)OCc1ccccc1	< 3.70	< 3.70	–
O=C(O)Cn1nnc2c(=O)[nH][nH]c(=O)c21	< 3.70	< 3.70	–
OCCNc1nnc(NCCO)c2[nH]cnc12	–	–	inactive
CC1=C(C(=O)Nc2ccc([N+](=O)[O-])cc2)C(c2ccc(N(C)C)cc2)C(C(=O)Nc2ccc([N+](=O)[O-])cc2)=C(C)N1	< 4.75	< 4.75	–
O=C1NC(=O)C(CC2CCCCCCCCCCC2=O)C(=O)N1 (configuration not stated)	< 3.95	< 3.95	–
